From patent publication EP4603105A1, “PHARMACEUTICAL COMPOSITION CONTAINING CYCLIC COMPOUND HAVING SELECTIVE KRAS INHIBITORY EFFECT AGAINST HRAS AND NRAS” (CHUGAI SEIYAKU KABUSHIKI KAISHA, priority 2022, dated 2024)
*1 amine or outer side, *2 acyl side, *3 side chain or, on linkers, in order; H or OH if unused. Where a SMILES comes first, the peptide text is derived from it. Bridges are numbered along the chain shown (N, C = ends). [ ]: non-standard residue; d: D form. The star is where a group is joined. hPhe(3-Cl-4-CF3) = N[C@@H](CCc1ccc(C(F)(F)F)c(Cl)c1)C(=O)O; NPrPhe(4-CF3) = CCCN[C@@H](Cc1ccc(C(F)(F)F)cc1)C(=O)O; NMePhe(4-Me) = CN[C@@H](Cc1ccc(C)cc1)C(=O)O; X35 = CCCN([C@@H](CC(C)C)C(=O)[*:2])[*:1]; NMeGly(cPent) = CN[C@H](C(=O)O)C1CCCC1; Pro(4,4-Me2) = CC1(C)CN[C@H](C(=O)O)C1; Hyp = O=C(O)[C@@H]1C[C@@H](O)CN1; NMeD = CN[C@@H](CC(=O)O)C(=O)O; NMeL = CN[C@@H](CC(C)C)C(=O)O; NMeNva = CCC[C@H](NC)C(=O)O; NMeS = CN[C@@H](CO)C(=O)O; Morpholide = C1CN(*)CCO1; Ac5c = NC1(C(=O)O)CCCC1; Aze = O=C(O)[C@@H]1CCN1; Ac4c = NC1(C(=O)O)CCC1; Sar = CNCC(=O)O

Key:
[1] = biological target: GDP-bound NRAS wild-type protein (Homo sapiens, UniProt P01111); assay: Binding to NRAS by surface plasmon resonance (SPR), KD and KD ratio to KRAS
GDP-bound NRAS wild-type protein, sequence (P01111 whole entry): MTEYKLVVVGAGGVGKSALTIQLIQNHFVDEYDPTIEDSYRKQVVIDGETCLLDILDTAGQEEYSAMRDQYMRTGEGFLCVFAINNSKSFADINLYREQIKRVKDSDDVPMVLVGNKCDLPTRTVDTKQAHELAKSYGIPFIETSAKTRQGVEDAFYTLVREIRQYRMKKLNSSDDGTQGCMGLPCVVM
Procedure, shortened: (§1)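 Biotinylated GDP-bound RAS was captured at about 100–300 RU. Running buffer: HBS pH 7.4, 10 mM MgCl2, 10 µM GDP, 1 mM DTT, 0.01% Tween 20, 4% DMSO.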

HRAS wild-type protein = HRAS wild-type protein (Homo sapiens, UniProt P01112); assay: Binding to HRAS by surface plasmon resonance (SPR), KD and KD ratio to KRAS
HRAS wild-type protein, sequence (P01112 whole entry): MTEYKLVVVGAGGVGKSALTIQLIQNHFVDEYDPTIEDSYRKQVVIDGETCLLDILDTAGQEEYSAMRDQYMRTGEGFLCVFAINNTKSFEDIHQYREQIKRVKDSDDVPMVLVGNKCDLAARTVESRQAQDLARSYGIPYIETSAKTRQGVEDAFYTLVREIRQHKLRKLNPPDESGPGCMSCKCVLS
Procedure, shortened: as §1

[2] = tested on: human lung cancer strain NCI-H441; assay type: cell-based
Procedure, shortened: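 Step one: dispense the test compound in serial DMSO dilutions. Step three: add the reagent and measure […].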

[3] = ratio of the KD value with respect to GDP-bound NRAS wild-type protein to the KD value with respect to KRAS
[4] = ratio of the KD value with respect to HRAS wild-type protein to the KD value with respect to KRAS
[5] = ratio of KD for GDP-bound NRAS wild-type protein to KD for KRAS
[6] = ratio of KD for HRAS wild-type protein to KD for KRAS
[7] = ratio of KD value for GDP-bound NRAS wild-type protein to KD value for KRAS (SPR)
[8] = ratio of KD value for HRAS wild-type protein to KD value for KRAS (SPR)

Row | Structure (SMILES) | NRAS /KRAS [1, 3] | HRAS /KRAS (HRAS wild-type protein; [4]) | IC50 [2] [µM] | NRAS /KRAS [1, 5] | HRAS /KRAS (HRAS wild-type protein; [6]) | NRAS /KRAS [1, 7] | HRAS /KRAS (HRAS wild-type protein; [8])
1 | CCC[C@H]1C(=O)N[C@@H](C(CC)CC)C(=O)N(C)CC(=O)N(C)[C@H]2C/C=C\CCN(C2=O)[C@@H](Cc2ccc(C)cc2)C(=O)N(C)CC(=O)N[C@@H](CCc2ccc(C(F)(F)F)c(Cl)c2)C(=O)N2C[C@H](OCC)C[C@H]2C(=O)NC2(CC(C)(C)C2)C(=O)N(C)[C@@H](CC(C)(C)C)C(=O)N(C)[C@H](C(=O)N(C)C)CC(=O)N1C [PP2207] | A (a compound having 10 or more and less than 20 is denoted as A) | A (a compound having 10 or more and less than 20 is denoted as A) | 0.0258 |  |  |  | 
2 | CCC[C@H]1C(=O)N[C@@H]([C@@H](C)CC)C(=O)N(C)CC(=O)N(C)CC(=O)N(CCC)[C@@H](Cc2ccc(C(F)(F)F)cc2)C(=O)N(C)CC(=O)N[C@@H](CCc2ccc(C(F)(F)F)c(Cl)c2)C(=O)N2CCC[C@H]2C(=O)NC2(CCCC2)C(=O)N(C)[C@@H](C2CCCC2)C(=O)N(C)[C@H](C(=O)N2CCOCC2)CC(=O)N1C [PP0189] ([NMeNva]I[Sar][Sar][NPrPhe(4-CF3)][Sar][hPhe(3-Cl-4-CF3)]P[Ac5c][NMeGly(cPent)][NMeD]-Morpholide; lactam N-11) |  |  | 0.003 | B (a compound having 3 or more and less than 10 is denoted as B) | C (A compound having a KD ratio of 0.1 or more and less than 3 is denoted as C) |  | 
3 | CC[C@H](C)[C@@H]1NC(=O)[C@H](CC(C)C)N(C)C(=O)C[C@@H](C(=O)N2CCOCC2)N(C)C(=O)[C@H](C2CCCC2)N(C)C(=O)C2(CCCC2)NC(=O)[C@@H]2CCCN2C(=O)[C@H](CCc2ccc(C(F)(F)F)c(Cl)c2)NC(=O)CN(C)C(=O)[C@H](Cc2ccc(C)cc2)N(C)C(=O)[C@H](CO)N(C)C(=O)CN(C)C1=O [PP0037] ([NMeL]I[Sar][NMeS][NMePhe(4-Me)][Sar][hPhe(3-Cl-4-CF3)]P[Ac5c][NMeGly(cPent)][NMeD]-Morpholide; lactam N-11) |  |  | 0.43 | C (A compound having a KD ratio of 0.1 or more and less than 3 is denoted as C) | C (A compound having a KD ratio of 0.1 or more and less than 3 is denoted as C) |  | 
4 | CCO[C@@H]1C[C@H]2C(=O)NC3(CCC3)C(=O)N(C)[C@@H](C3CCCC3)C(=O)N(C)[C@H](C(=O)N(C)C)CC(=O)N(C)[C@@H](CC)C(=O)N[C@@H]([C@@H](C)CC)C(=O)N3C[C@H](OCC)C[C@H]3C(=O)N(C)[C@H]3C/C=C\CCN(C3=O)[C@@H](Cc3ccc(C(F)(F)F)cc3)C(=O)N(C)CC(=O)N[C@@H](CCc3cc(F)c(C(F)(F)F)c(F)c3)C(=O)N2C1 [PP1057] |  |  | 0.0969 | A (a compound having 10 or more and less than 20 is denoted as A) | B (a compound having 3 or more and less than 10 is denoted as B) |  | 
5 | CCCN1C(=O)CN(C)C(=O)CN(C)C(=O)[C@H]([C@@H](C)CC)NC(=O)[C@H](CC(C)C)N(C)C(=O)C[C@@H](C(=O)N2CCOCC2)N(C)C(=O)[C@H](C2CCCC2)N(C)C(=O)C2(CCCC2)NC(=O)[C@@H]2C[C@@H](OC)CN2C(=O)[C@H](CCc2ccc(C(F)(F)F)c(Cl)c2)NC(=O)CN(C)C(=O)[C@@H]1Cc1ccc(C(F)(F)F)cc1 [PP0262] ([NMeL]I[Sar][Sar][NPrPhe(4-CF3)][Sar][hPhe(3-Cl-4-CF3)][Hyp](Me)[Ac5c][NMeGly(cPent)][NMeD]-Morpholide; lactam N-11) |  |  | 0.0019 | B (a compound having 3 or more and less than 10 is denoted as B) | B (a compound having 3 or more and less than 10 is denoted as B) |  | 
6 | CCCN1C(=O)C[C@@H](C(=O)N2CCOCC2)N(C)C(=O)[C@H](C2CCCC2)N(C)C(=O)C2(CCC2)NC(=O)[C@@H]2CCCN2C(=O)[C@H](CCc2ccc(C(F)(F)F)c(Cl)c2)NC(=O)CN(C)C(=O)[C@H](Cc2ccc(C(F)(F)F)cc2)N(CCC)C(=O)CN(C)C(=O)CN(C)C(=O)[C@H](C(C)C)NC(=O)[C@@H]1CC(C)C [PP1815] ([X35]V[Sar][Sar][NPrPhe(4-CF3)][Sar][hPhe(3-Cl-4-CF3)]P[Ac4c][NMeGly(cPent)][NMeD]-Morpholide; lactam N-11) |  |  | 0.083 |  |  | B (a compound having 3 or more and less than 10 is denoted as B) | B (a compound having 3 or more and less than 10 is denoted as B)
7 | CCO[C@@H]1C[C@H]2C(=O)NC3(CCC3)C(=O)N(C)[C@@H](C3CCCC3)C(=O)N(C)[C@H](C(=O)N3CCOCC3)CC(=O)N(C)[C@@H](COC)C(=O)N[C@@H]([C@@H](C)CC)C(=O)N(C)CC(=O)N(C)[C@H]3CCCCCN(C3=O)[C@@H](Cc3ccc(C(F)(F)F)cc3)C(=O)N(C)CC(=O)N[C@@H](CCc3ccc(C(F)(F)F)c(F)c3)C(=O)N2C1 [PP0848] |  |  | 0.0375 | B (a compound having 3 or more and less than 10 is denoted as B) | B (a compound having 3 or more and less than 10 is denoted as B) |  | 
8 | CCCN1C(=O)[C@@H]2CCN2C(=O)CN(C)C(=O)[C@H]([C@@H](C)CC)NC(=O)[C@H](CC(C)C)N(C)C(=O)C[C@@H](C(=O)N(C)C)NC(=O)[C@H](C2CCCC2)N(C)C(=O)C2(CCCC2)NC(=O)[C@@H]2C[C@@H](OCC)CN2C(=O)[C@H](CCc2ccc(C(F)(F)F)c(Cl)c2)NC(=O)CN(C)C(=O)[C@@H]1Cc1ccc(C(F)(F)F)cc1 [PP0389] ([NMeL]I[Sar][Aze][NPrPhe(4-CF3)][Sar][hPhe(3-Cl-4-CF3)][Hyp](Et)[Ac5c][NMeGly(cPent)]D-NMe2; lactam N-11) | C (A compound having a KD ratio of 0.1 or more and less than 3 is denoted as C) | B (a compound having 3 or more and less than 10 is denoted as B) | 0.003 |  |  |  | 
9 | CCCN1C(=O)CN(C)C(=O)CN(C)C(=O)[C@H]([C@@H](C)CC)NC(=O)[C@H](CC(C)C)N(C)C(=O)C[C@@H](C(=O)N2CCOCC2)N(C)C(=O)[C@H](C2CCCC2)N(C)C(=O)C2(CCCC2)NC(=O)[C@@H]2CC(C)(C)CN2C(=O)[C@H](CCc2ccc(C(F)(F)F)c(Cl)c2)NC(=O)CN(C)C(=O)[C@@H]1Cc1ccc(C(F)(F)F)cc1 [PP0446] ([NMeL]I[Sar][Sar][NPrPhe(4-CF3)][Sar][hPhe(3-Cl-4-CF3)][Pro(4,4-Me2)][Ac5c][NMeGly(cPent)][NMeD]-Morpholide; lactam N-11) | B (a compound having 3 or more and less than 10 is denoted as B) | C (A compound having a KD ratio of 0.1 or more and less than 3 is denoted as C) | 0.0016 |  |  |  | 
10 | CCO[C@@H]1C[C@H]2C(=O)NC3(CC(C)(C)C3)C(=O)N(C)[C@@H](C3CCCCC3)C(=O)N(C)[C@H](C(=O)N(C)C)CC(=O)N(C)[C@@H](CC)C(=O)N[C@@H]([C@@H](C)CC)C(=O)N(C)CC(=O)N(C)[C@H]3C/C=C\CCN(C3=O)[C@@H](Cc3ccc(C(F)(F)F)cc3)C(=O)N(C)CC(=O)N[C@@H](CCc3cc(F)c(C(F)(F)F)c(F)c3)C(=O)N2C1 [PP1942] | AA (a compound having 20 or more is denoted as AA) | A (a compound having 10 or more and less than 20 is denoted as A) | 0.0257 |  |  |  | 
11 | CCO[C@@H]1C[C@H]2C(=O)NC3(CC(F)(F)C3)C(=O)N(C)[C@@H](C3CCCC3)C(=O)N(C)[C@H](C(=O)N(C)CC)CC(=O)N(C)[C@@H](CC3CC3)C(=O)N[C@@H]([C@@H](C)CC)C(=O)N(C)CC(=O)N(C)[C@H]3C/C=C\CCN(C3=O)[C@@H](Cc3ccc(C(F)(F)F)cc3)C(=O)N(C)CC(=O)N[C@@H](CCc3cc(F)c(C(F)(F)F)c(F)c3)C(=O)N2C1 [PP1738] |  |  | 0.0051 |  |  | AA (a compound having 20 or more is denoted as AA) | A (a compound having 10 or more and less than 20 is denoted as A)
12 | CC[C@H](C)[C@@H]1NC(=O)[C@H](CC(C)C)N(C)C(=O)C[C@@H](C(=O)N2CCOCC2)N(C)C(=O)[C@H](CC(F)(F)F)N(C)C(=O)C2(CCCC2)NC(=O)[C@@H]2CCCN2C(=O)[C@H](CCc2cc(F)c(C(F)(F)F)c(F)c2)NC(=O)CN(C)C(=O)[C@H](Cc2ccc(C(F)(F)F)cc2)N2CCCC[C@@H](C2=O)N(C)C(=O)CN(C)C1=O [PP0568] | B (a compound having 3 or more and less than 10 is denoted as B) | B (a compound having 3 or more and less than 10 is denoted as B) | 0.0795 |  |  |  | 
13 | CCO[C@@H]1C[C@H]2C(=O)NC3(CC(C)(C)C3)C(=O)N(C)[C@@H](C3CCCC3)C(=O)N(C)[C@H](C(=O)N(C)C)CC(=O)N(C)[C@@H]([C@H](C)OC)C(=O)N[C@@H]([C@@H](C)CC)C(=O)N3CCC[C@H]3C(=O)N(C)[C@H]3C/C=C\CCN(C3=O)[C@@H](Cc3ccc(C)cc3)C(=O)N(C)CC(=O)N[C@@H](CCc3ccc(C(F)(F)F)c(Cl)c3)C(=O)N2C1 [PP3201] |  |  | 0.128 | A (a compound having 10 or more and less than 20 is denoted as A) | A (a compound having 10 or more and less than 20 is denoted as A) |  | 
